Key:
[1] = Aging promotion testing: sunlight 30 min / fading one hour cycles, 10 days (durability, coloring degree); assay type: physicochemical
Protocol: In order to promote the aging, furthermore, the following testing was conducted. That is, the obtained photochromic polymer was irradiated with sunlight for 30 minutes to develop color, and its color was permitted to fade for one hour in the light of a fluorescent lamp. This cycle was repeated three times a day for a total of 10 days.
The photochromic properties before and after aged were evaluated by evaluating the color densities before and after aged. The initial color density (T0) and the color density (T30) ten days after the aging promotion testing were measured, and the durability was expressed as described below.
Furthermore, the coloring degrees of before developing color were measured before and after aged by using a color difference meter (SM-4) manufactured by Suga Shikenki Co.
7 Coloring degree before being aged=YI(0).
8 Change in the coloring degree (ΔYI)=YI(10)-YI(0)
YI(10): coloring degree after aged
(§1) Photochromic polymers were prepared in the same manner as in Example 42 but using the chromene compounds obtained in Examples 2 to 41, and their maximum absorption wavelengths, color densities, fading rates, changes in the coloring degrees and durabilitys were measured.
(§2) For the purpose of comparison, furthermore, the compounds represented by the following formulas (a), (b), (c), (d), (e) and (f) were measured for their maximum absorption wavelengths, color densities, fading rates, changes in the coloring degrees and durabilitys.
(§3) The procedure was carried out in the same manner as in Example 42 but using 100 parts of AC1 and 133 parts of BC1, the sum of the amounts of AC1 and BC1 being 0.04% by weight. The obtained photochromic polymer was measured for its maximum absorption wavelength, initial color, color density, color-developing sensitivity, fading rate, durability and change in the coloring degree.
(§4) The procedure was carried out in the same manner as in Example 83 but using the known chromene compounds shown in Table 6 instead of the chromene compound used in Example 83. […]
The obtained polymer (2 mm thick) was caused to develop color outdoors, and tones of the developed color were observed by eyes 30 seconds and 15 minutes after it was brought to the outdoors, and uniformity in the step of developing color was evaluated. […] Furthermore, the aging promoting testing was conducted in the same manner as in Example 42 to find a coloring degree (YI(0)) before aged and a change in the coloring degree (ΔY).

[2] = Photochromic properties of cast polymer (2 mm thick) under xenon lamp irradiation for 120 seconds; assay type: physicochemical; details: for λ max: chromene composition, or other chromene C1-C4, 0.04% by weight in polymer; for Initial color ε(0): chromene composition, or other chromene C1-C4, non-irradiated; for Color-developing sensitivity: saturated color density/xenon irradiation time
Protocol: 0.04% by weight of the chromene compound obtained in Example 1 was added to 70 parts of 4G, 15 parts of 3G, 10 parts of GMA, 5 parts of HEMA and 1 part of perbutyl ND, and was mixed together to a sufficient degree. The mixture solution was poured into a mold constituted by a glass plate and a gasket of an ethylene/vinyl acetate copolymer, and was cast-polymerized. By using an air furnace, the polymerization was conducted in a manner that the temperature was gradually raised from 30° C. to 90° C. over a period of 18 hours, and was held at 90° C. for 2 hours. After the polymerization, the polymer was taken out from the glass mold.
By using a xenon lamp, L-2480 (300 W) SHL-100, manufactured by Hamamatsu Photonics Co., the obtained polymer (2 mm thick) was irradiated with a beam of an intensity of 365 nm=2.4 mW/cm^2 and 245 nm=24 μW/cm^2 on the surface of the polymer for 120 seconds through an aero-mass filter (manufactured by Corning Co.) at 20° C.±1° C. to develop color and to measure the photochromic properties which were expressed in the following manner.
1 Maximum absorption wavelength (λmax): λmax of the polymer after it has developed color was found by using a spectrophotometer (instantaneous multi-channel photo-detector, MCPD1000) manufactured by Otsuka Denshi Kogyo Co.
2 Initial color ( ε(0)): Absorbency of the polymer in a non-irradiated state at a wavelength same as the maximum absorption wavelength of when it is irradiated with light.
3 Color density (-)=ε(120)-ε(0). ε(120): Absorbency of the polymer at a maximum absorption wavelength after it was irradiated for 120 seconds under the above-mentioned conditions.
4 Color-developing sensitivity (-/min.)=Saturated color density/xenon irradiation time.
Rate of increase in the color density per a unit time until the color density is saturated.
5 Color fading rate [t1/2 (min.)]=time required until the absorbency of the polymer drops down to one-half of [ε(120)-ε(0)] after irradiated for 120 seconds.
as §1, §2, §3, §4

[3] = YI(10)-YI(0), single chromene compound in polymer, 10 days aging, Table 5
[4] = single chromene compound in polymer, 10 days aging, Table 5
[5] = single chromene compound 0.04% by weight in polymer, 20° C., Table 5
[6] = single chromene compound 0.04% by weight in polymer, 120 seconds, 20° C., Table 5
[7] = chromene composition, or other chromene C1-C4, 10 days aging, Table 6
[8] = chromene composition, or other chromene C1-C4, 120 seconds, Table 6
[9] = chromene composition, or other chromene C1-C4, Table 6

CCC(C)(C)c1cc2ccccc2c2c1C=CC(c1ccc(OC)cc1)(c1ccco1)O2 (stereo not shown) [Compound 3]
Change in the coloring degree ΔYI [1, 3]: 2.0
Light resistance (durability) [1, 4]: 95%
Fading rate t1/2 [2, 5]: 3.1 min
Maximum absorption wavelength λmax [2, 5]: 488 nm
Color density ε(120)-ε(0) [2, 6]: 1.1

CC(C)c1cc2ccccc2c2c1C=CC1(O2)C2CCC1CC2 (stereo not shown) [Compound 19]
Change in the coloring degree ΔYI [1, 3]: 5.5
Light resistance (durability) [1, 4]: 92%
Fading rate t1/2 [2, 5]: 1.0 min
Maximum absorption wavelength λmax [2, 5]: 448 nm
Color density ε(120)-ε(0) [2, 6]: 0.5

C1=CC2(CC3CCC2C3)Oc2c1ccc1ccccc21 (stereo not shown) [Compound C1, Spiro(norbornane-2,2'-(2H)benzo(h)chromene), reference compound]
Change in the coloring degree ΔYI [1, 7]: 2.0
Durability [1, 7]: 90%
λ max ([2]; Table 6): 450 nm
Color density ε(120)-ε(0) [2, 8]: 1.0
Initial color ε(0) ([2]; Table 6): 0.01
Fading rate t1/2 [2, 9]: > 10 min
Color-developing sensitivity ([2]; Table 6): 0.2 -/min.

CC(C)c1cc2ccccc2c2c1C=CC(c1ccccc1)(c1ccc3ccccc3c1)O2 (stereo not shown) [Compound 7]
Change in the coloring degree ΔYI [1, 3]: 1.7
Light resistance (durability) [1, 4]: 96%
Fading rate t1/2 [2, 5]: 3.5 min
Maximum absorption wavelength λmax [2, 5]: 468 nm
Color density ε(120)-ε(0) [2, 6]: 0.8

CC(C)(C)c1cc2ccccc2c2c1C=CC1(CC3CCC1C3)O2 (stereo not shown) [Compound 18]
Change in the coloring degree ΔYI [1, 3]: 1.8
Light resistance (durability) [1, 4]: 95%
Fading rate t1/2 [2, 5]: 1.3 min
Maximum absorption wavelength λmax [2, 5]: 440 nm
Color density ε(120)-ε(0) [2, 6]: 0.4

Cc1c2c(c3ccccc3c1C)OC(c1ccccc1)(c1ccccc1)C=C2 [Compound C3, 5,6-Dimethyl-2,2-diphenyl-2H-benzo(h)chromene, reference compound]
Change in the coloring degree ΔYI [1, 7]: 5.0
Durability [1, 7]: 95%
λ max ([2]; Table 6): 480 nm
Color density ε(120)-ε(0) [2, 8]: 1.0
Initial color ε(0) ([2]; Table 6): 0.01
Fading rate t1/2 [2, 9]: 10 min
Color-developing sensitivity ([2]; Table 6): 0.2 -/min.

COc1ccc(C2(c3ccc(OC)c(F)c3)C=Cc3c(C(C)C)cc4ccccc4c3O2)cc1F [Compound 14]
Change in the coloring degree ΔYI [1, 3]: 1.3
Light resistance (durability) [1, 4]: 99%
Fading rate t1/2 [2, 5]: 4.3 min
Maximum absorption wavelength λmax [2, 5]: 492 nm
Color density ε(120)-ε(0) [2, 6]: 0.8

COc1ccc(C2(c3ccc(OC(F)(F)F)cc3)C=Cc3c(C)cc4ccccc4c3O2)cc1 (stereo not shown) [Compound 30]
Change in the coloring degree ΔYI [1, 3]: 2.4
Light resistance (durability) [1, 4]: 97%
Fading rate t1/2 [2, 5]: 8.5 min
Maximum absorption wavelength λmax [2, 5]: 490 nm
Color density ε(120)-ε(0) [2, 6]: 1.1

COc1ccc(C2(c3ccc(OC)cc3)C=Cc3c(C)cc4ccccc4c3O2)cc1 [Compound 26]
Change in the coloring degree ΔYI [1, 3]: 2.3
Light resistance (durability) [1, 4]: 99%
Fading rate t1/2 [2, 5]: 6.0 min
Maximum absorption wavelength λmax [2, 5]: 504 nm
Color density ε(120)-ε(0) [2, 6]: 1.2

CC(C)(C)c1cc2ccccc2c2c1C=CC1(O2)C2CC3CC(C2)CC1C3 (stereo not shown) [Compound 24]
Change in the coloring degree ΔYI [1, 3]: 5.0
Light resistance (durability) [1, 4]: 95%
Fading rate t1/2 [2, 5]: 1.8 min
Maximum absorption wavelength λmax [2, 5]: 445 nm
Color density ε(120)-ε(0) [2, 6]: 0.6

Cc1cc2ccccc2c2c1C=CC(c1ccccc1)(c1ccccc1)O2 [c, reference compound]
Change in the coloring degree ΔYI [1, 3]: 2.4
Light resistance (durability) [1, 4]: 96%
Fading rate t1/2 [2, 5]: 20 min
Maximum absorption wavelength λmax [2, 5]: 484 nm
Color density ε(120)-ε(0) [2, 6]: 1.3

C1=CC2(Oc3c1ccc1ccccc31)C1CCCC2CCC1 (stereo not shown) [d, reference compound]
Change in the coloring degree ΔYI [1, 3]: 1.5
Light resistance (durability) [1, 4]: 98%
Fading rate t1/2 [2, 5]: 11 min
Maximum absorption wavelength λmax [2, 5]: 452 nm
Color density ε(120)-ε(0) [2, 6]: 1.0

COc1ccc(C2(c3ccco3)C=Cc3c(C)cc4c(F)ccc(C)c4c3O2)cc1 (stereo not shown) [Compound 41]
Change in the coloring degree ΔYI [1, 3]: 3.2
Light resistance (durability) [1, 4]: 95%
Fading rate t1/2 [2, 5]: 6.3 min
Maximum absorption wavelength λmax [2, 5]: 510 nm
Color density ε(120)-ε(0) [2, 6]: 1.0

COc1ccc2c3c(c(C(C)Cc4ccccc4)cc2c1)C=CC(c1ccccc1)(c1cccn1C)O3 (stereo not shown) [Compound 8]
Change in the coloring degree ΔYI [1, 3]: 2.0
Light resistance (durability) [1, 4]: 92%
Fading rate t1/2 [2, 5]: 2.2 min
Maximum absorption wavelength λmax [2, 5]: 490 nm
Color density ε(120)-ε(0) [2, 6]: 0.7

CC(C)c1cc2ccccc2c2c1C=CC(c1ccccc1)(c1ccccc1)O2 [Compound 12]
Change in the coloring degree ΔYI [1, 3]: 1.0
Light resistance (durability) [1, 4]: 99%
Fading rate t1/2 [2, 5]: 6.8 min
Maximum absorption wavelength λmax [2, 5]: 476 nm
Color density ε(120)-ε(0) [2, 6]: 0.9

CCC(C)c1cc2ccccc2c2c1C=CC(c1ccc(OC)cc1)(c1ccc(OC)c(C#N)c1)O2 (stereo not shown) [Compound 4]
Change in the coloring degree ΔYI [1, 3]: 5.0
Light resistance (durability) [1, 4]: 80%
Fading rate t1/2 [2, 5]: 2.4 min
Maximum absorption wavelength λmax [2, 5]: 470 nm
Color density ε(120)-ε(0) [2, 6]: 0.7

CCCCc1cc2cccc(Br)c2c2c1C=CC(c1ccc(OC)c(F)c1)(c1ccc(OC)c(F)c1)O2 [Compound 38]
Change in the coloring degree ΔYI [1, 3]: 2.8
Light resistance (durability) [1, 4]: 96%
Fading rate t1/2 [2, 5]: 4.8 min
Maximum absorption wavelength λmax [2, 5]: 482 nm
Color density ε(120)-ε(0) [2, 6]: 0.8

COc1ccc(C2(c3ccc(OC)cc3)C=Cc3c(C)cc4c(OC)cccc4c3O2)cc1 [Compound 33]
Change in the coloring degree ΔYI [1, 3]: 2.2
Light resistance (durability) [1, 4]: 98%
Fading rate t1/2 [2, 5]: 5.5 min
Maximum absorption wavelength λmax [2, 5]: 520 nm
Color density ε(120)-ε(0) [2, 6]: 1.3

CCOC(=O)c1c2c(c3ccccc3c1C)OC(c1ccccc1)(c1ccccc1)C=C2 [Compound C2, 5-Ethoxycarbonyl-6-methyl-2,2-diphenyl-2H-benzo(h) chromene, reference compound]
Change in the coloring degree ΔYI [1, 7]: 4.0
Durability [1, 7]: 95%
λ max ([2]; Table 6): 458 nm
Color density ε(120)-ε(0) [2, 8]: 0.9
Initial color ε(0) ([2]; Table 6): 0.02
Fading rate t1/2 [2, 9]: 4.0 min
Color-developing sensitivity ([2]; Table 6): 0.2 -/min.

CC(C)(C)c1cc2ccccc2c2c1C=CC1(O2)C2CCCC1CCC2 (stereo not shown) [Compound 2]
Change in the coloring degree ΔYI [1, 3]: 1.5
Light resistance (durability) [1, 4]: 96%
Fading rate t1/2 [2, 5]: 1.2 min
Maximum absorption wavelength λmax [2, 5]: 443 nm
Color density ε(120)-ε(0) [2, 6]: 0.5

CC(C)c1cc2ccccc2c2c1C=CC1(O2)C2CCCC1CCC2 (stereo not shown) [Compound 21]
Change in the coloring degree ΔYI [1, 3]: 2.0
Light resistance (durability) [1, 4]: 97%
Fading rate t1/2 [2, 5]: 1.0 min
Maximum absorption wavelength λmax [2, 5]: 449 nm
Color density ε(120)-ε(0) [2, 6]: 0.5

CC(C)c1cc2ccccc2c2c1C=CC1(O2)C2CC3CC(C2)CC1C3 (stereo not shown) [Compound 25]
Change in the coloring degree ΔYI [1, 3]: 2.2
Light resistance (durability) [1, 4]: 92%
Fading rate t1/2 [2, 5]: 2.0 min
Maximum absorption wavelength λmax [2, 5]: 454 nm
Color density ε(120)-ε(0) [2, 6]: 0.7

CC(=O)Oc1ccc2c3c(c(C(C)C)cc2c1)C=CC(c1ccc(C)cc1)(c1ccc(C)cc1)O3 [Compound 10]
Change in the coloring degree ΔYI [1, 3]: 1.5
Light resistance (durability) [1, 4]: 93%
Fading rate t1/2 [2, 5]: 3.2 min
Maximum absorption wavelength λmax [2, 5]: 465 nm
Color density ε(120)-ε(0) [2, 6]: 0.6

Source: patent US6197225A, “Chromene compound” (Tokuyama Corporation, priority 1997, dated 2001)
